The values below come from patent US8673908B2, “Kynurenine production inhibitor” (Kyowa Hakko Kirin Co., Ltd., priority 2008, dated 2014).

In the experiment the test system is kynurenine production in IFN-γ-treated KATO-III cells. Description: Inhibitory activity on kynurenine production (Test Example 1). The format is cell-based. Conditions: Homo sapiens, IFN-γ treatment, culture for 96 hours, read-out: IC50 value, inhibition of kynurenine production. Here is the method:
This assay was performed according to a method modified from the method described in the Journal of Biological Chemistry (J. Biol. Chem.), vol. 263, pp. 2041-2048 (1988). Culture of KATO-III derived from human gastric cancer cells was performed by use of RPMI 1640 (GIBCO, 11875) supplemented with 10 vol % FBS (GIBCO, 10091-148, lot. 665285). 1 μL of a DMSO solution of the test substance was diluted with 199 μL of the culture medium, and the diluted solution was added to wells of a 384 well plate (10 μL/well). Then, IFN-γ (Sigma, 1-3265) was added to the culture medium so that the concentration of IFN-γ was 31.25 ng/mL, and the KATO-III cells were suspended at 50,000 cells/ml, in the culture medium. 40 μL of the suspension was added to each well (2,000 cells/well), and culture of the KATO-III cells was performed at 37° C. under a 5% CO2 atmosphere for 96 hours. The final concentration of DMSO was limited to 0.1 vol % or less so that DMSO itself might not affect the kynurenine concentration measured by this assay. After the culture, 10 μL of a 30 w/v % aqueous trichloroacetic acid solution was added to each well, and incubation was performed at 65° C. for 30 minutes. The plate was centrifuged at 2,500×g for 5 minutes, and then 15 μL of the supernatant in each well was transferred into another 384 well plate. To each of the transferred supernatants, 15 μL of a 2 w/v % solution of p-dimethylaminobenzaldehyde in acetic acid was added, incubation was performed at 65° C. for 20 minutes, and then the absorbance at 480 nm was measured.
[formula] Sample: the absorbance value of the well to which a DMSO solution containing the test substance was added and in which cells were treated with IFN-γ. Blank: the absorbance value of the well to which only DMSO, not the test substance was added and in which cells were treated with IFN-γ. Control: the absorbance value of the well to which only DMSO, not the test substance was added and in which cells were not treated with IFN-γ.
In this assay, expression of IDO in KATO-III cells is induced by IFN-γ treatment and then kynurenine in the culture medium is quantified. It is known that the kynurenine concentration in a culture medium increases in proportion to the enzymatic activity of intracellular IDO (for example, the Journal of Biological Chemistry (J. Biol. Chem.), vol. 263, pp. 2041-2048 (1988)). […] It is known that kynurenine production is inhibited by IDO inhibitors (for example, the Journal of Clinical Investigation (J. Clin. Invest.), vol. 117, No. 5, pp. 1147-1154 […]), and thus it is expected that Compound (I) also has an inhibitory effect on IDO.

As usually defined, the IC50 is the point on the concentration scale where inhibition reaches its midpoint.

Consider `O=S(=O)(Nc1nc2ccccc2nc1OC(c1cncn1CC1CC1)C(F)(F)F)c1ccccc1Cl` (centres unmarked) [Compound 111, 2-chloro-N-{3-[2,2,2-trifluoro-1-(1-cyclopropylmethyl-1H-imidazol-5-yl)ethoxy]quinoxalin-2-yl}benzenesulfonamide], for which the IC50 is under 1000 nM. The result for `Cc1ccc(C(Oc2nc3ccccc3nc2NS(=O)(=O)c2c(C)noc2C)C(F)(F)F)cn1` (centres unmarked) [Compound 70, 3,5-dimethyl-N-{3-[2,2,2-trifluoro-1-(6-methylpyridin-3-yl)ethoxy]quinoxalin-2-yl}isoxazole-4-sulfonamide] reads under 1000 nM. Regarding `O=CCCNS(=O)(=O)Nc1nc2ccccc2nc1OC(c1cccnc1)C(F)(F)F` (centres unmarked) [Compound 273, N-{3-[2,2,2-trifluoro-1-(pyridin-3-yl)ethoxy]quinoxalin-2-yl}-N′-(3-oxopropyl)-sulfuric diamide], the half-inhibitory concentration (IC50) was in the range of 1000 to 10000 nM.

For `O=S(=O)(Nc1nc2ccccc2nc1OC(c1ccco1)C(F)(F)F)c1ccccc1Cl` (centres unmarked) [Compound 109, 2-chloro-N-{3-[2,2,2-trifluoro-1-(furan-2-yl)ethoxy]-quinoxalin-2-yl}benzenesulfonamide], the IC50 is under 1000 nM. The result for `CCCS(=O)(=O)Nc1nc2ccccc2nc1OC(C1CCN(C(=O)C2CC2)CC1)C(F)(F)F` (centres unmarked) [Compound 341, N-{3-[2,2,2-trifluoro-1-(1-cyclopropanecarbonylpiperidin-4-yl)ethoxy]quinoxalin-2-yl}propane-1-sulfonamide] reads under 1000 nM; that for `O=S(=O)(Nc1nc2ccccc2nc1OC(c1cccnc1)C(F)(F)F)c1ccccc1OC(F)(F)F` (centres unmarked) [Compound 151, N-{3-[2,2,2-trifluoro-1-(pyridin-3-yl)ethoxy]quinoxalin-2-yl}-2-(trifluoromethoxy)benzenesulfonamide], under 1000 nM. Take `Cc1ccc2nc(NS(=O)(=O)c3ccccc3Cl)c(OC(c3cccnc3)C(F)(F)F)nc2c1` (centres unmarked) [Compound 262, 2-chloro-N-{6-methyl-3-[2,2,2-trifluoro-1-(pyridin-3-yl)-ethoxy]quinoxalin-2-yl}benzenesulfonamide]: the IC50 is under 1000 nM. Regarding `O=S(=O)(Nc1nc2ccccc2nc1OC(c1cccnc1)C(F)(F)F)C1CC1` (centres unmarked) [Compound 150, N-{3-[2,2,2-trifluoro-1-(pyridin-3-yl)ethoxy]quinoxalin-2-yl}cyclopropanesulfonamide], the IC50 is under 1000 nM. The figure for `CCS(=O)(=O)Nc1nc2ccccc2nc1OC(c1cccnc1)C(F)(F)F` (centres unmarked) [Compound 190, N-{3-[2,2,2-trifluoro-1-(pyridin-3-yl)ethoxy]quinoxalin-2-yl}ethanesulfonamide] is under 1000 nM. The figure for `N#Cc1ccc(C(Oc2nc3ccccc3nc2NS(=O)(=O)c2ccccc2Cl)C(F)(F)F)cn1` (centres unmarked) [Compound 54, 2-chloro-N-{3-[2,2,2-trifluoro-1-(6-cyanopyridin-3-yl)-ethoxy]quinoxalin-2-yl}benzenesulfonamide] is under 1000 nM; for `O=S(=O)(Nc1nc2ccccc2nc1OC(c1cccc(Cl)c1)C(F)(F)F)c1ccccc1Cl` (centres unmarked) [Compound 84, 2-chloro-N-{3-[2,2,2-trifluoro-1-(3-chlorophenyl)ethoxy]-quinoxalin-2-yl}benzenesulfonamide] it is under 1000 nM. For the compound `N#CC1(COc2nc3ccccc3nc2NS(=O)(=O)c2ccccc2Cl)CCOCC1` [Compound 250, 2-chloro-N-{3-[(4-cyanotetrahydro-2H-pyran-4-yl)methoxy]-quinoxalin-2-yl}benzenesulfonamide], the 50% inhibitory concentration (IC50) fell in the range of 1000 to 10000 nM. Consider `O=S(=O)(Nc1nc2ccccc2nc1OC(c1cccnc1)C(F)(F)F)c1ccc(Cl)cc1` (centres unmarked) [Compound 182, 4-chloro-N-{3-[2,2,2-trifluoro-1-(pyridin-3-yl)ethoxy]-quinoxalin-2-yl}benzenesulfonamide], for which the IC50 was under 1000 nM. For the compound `CC(COc1nc2ccccc2nc1NS(=O)(=O)c1ccccc1Cl)Cc1cccnc1` (centres unmarked) [Compound 176, 2-chloro-N-{3-[2-methyl-3-(pyridin-3-yl)propoxy]quinoxalin-2-yl}benzenesulfonamide], the IC50 was under 1000 nM. In the case of `O=S(=O)(Nc1nc2ccccc2nc1OC(C1CCSCC1)C(F)(F)F)c1ccccc1Cl` (centres unmarked) [Compound 267, 2-chloro-N-{3-[2,2,2-trifluoro-1-(tetrahydro-2H-thiopyran-4-yl)ethoxy]quinoxalin-2-yl}benzenesulfonamide], the concentration for half-maximal inhibition (IC50) is under 1000 nM. The figure for `Cc1cc(S(=O)(=O)Nc2nc3ccccc3nc2OC(c2cccnc2)C(F)(F)F)c(C)s1` (centres unmarked) [Compound 162, 2,5-dimethyl-N-{3-[2,2,2-trifluoro-1-(pyridin-3-yl)ethoxy]-quinoxalin-2-yl}thiophene-3-sulfonamide] is under 1000 nM; for `COc1ccc(COc2nc(Cl)cnc2NS(=O)(=O)c2cccc(Cl)c2Cl)cc1` [Compound 2] it is 1000 to 10000 nM.

Turning to `O=S(=O)(Nc1nc2ccccc2nc1OC(c1ccc(Cl)nc1)C(F)(F)F)c1ccccc1Cl` (centres unmarked) [Compound 85, 2-chloro-N-{3-[2,2,2-trifluoro-1-(6-chloropyridin-3-yl)-ethoxy]quinoxalin-2-yl}benzenesulfonamide], the half-maximal inhibitory concentration (IC50) was under 1000 nM. `Cc1ncc(C(Oc2nc3ccccc3nc2NS(=O)(=O)CC2CC2)C(F)(F)F)s1` (centres unmarked) [Compound 306, 1-cyclopropyl-N-{3-[2,2,2-trifluoro-1-(2-methylthiazol-5-yl)ethoxy]quinoxalin-2-yl}methanesulfonamide]: the 50% inhibitory concentration (IC50) was under 1000 nM. With `O=Cc1ccc(C(Oc2nc3ccccc3nc2NS(=O)(=O)c2ccccc2Cl)C(F)(F)F)cc1` (centres unmarked) [Compound 58, 2-chloro-N-{3-[2,2,2-trifluoro-1-(4-formylphenyl)ethoxy]-quinoxalin-2-yl}benzenesulfonamide], the IC50 is under 1000 nM. For the compound `O=S(=O)(Nc1nc2ccccc2nc1OCc1ccc2ccccc2c1)c1c(Cl)cccc1Cl` [Compound 27, 2,6-dichloro-N-{3-[(2-naphthyl)methoxy]quinoxalin-2-yl}-benzenesulfonamide], the IC50 is under 1000 nM. As to `O=S(=O)(Nc1nc2ccccc2nc1OC(c1ccc(N2CCCC2)nc1)C(F)(F)F)c1ccccc1Cl` (centres unmarked) [Compound 93, 2-chloro-N-{3-{2,2,2-trifluoro-1-[6-(pyrrolidin-1-yl)-pyridin-3-yl]ethoxy}quinoxalin-2-yl}benzenesulfonamide], the 50% inhibitory concentration (IC50) was under 1000 nM. The result for `CCCS(=O)(=O)Nc1nc2ccccc2nc1OC(C1CCN(C(=O)OC)CC1)C(F)(F)F` (centres unmarked) [Compound 337, N-{3-[2,2,2-trifluoro-1-(1-methoxycarbonylpiperidin-4-yl)-ethoxy]quinoxalin-2-yl}propane-1-sulfonamide] reads under 1000 nM; that for `O=S(=O)(Nc1nc2ccccc2nc1OC(c1cccnc1)C(F)(F)F)c1ccsc1` (centres unmarked) [Compound 161, N-{3-[2,2,2-trifluoro-1-(pyridin-3-yl)ethoxy]quinoxalin-2-yl}thiophene-3-sulfonamide], under 1000 nM. The figure for `CCCNS(=O)(=O)Nc1nc2ccccc2nc1OC(C1CCOCC1)C(F)(F)F` (centres unmarked) [Compound 216, N-propyl-N′-{3-[2,2,2-trifluoro-1-(tetrahydro-2H-pyran-4-yl)ethoxy]quinoxalin-2-yl}sulfuric diamide] is under 1000 nM; for `O=S(=O)(Nc1nc2ccccc2nc1OC(C1CCOCC1)C(F)(F)F)NC1CC1` (centres unmarked) [Compound 299, N-{3-[2,2,2-trifluoro-1-(tetrahydro-2H-pyran-4-yl)ethoxy]-quinoxalin-2-yl}-N′-cyclopropyl-sulfuric diamide] it is under 1000 nM.
